The test concerns the target T1, VIPR2 (Homo sapiens, UniProt P41587).
T1 sequence (P41587 24-438): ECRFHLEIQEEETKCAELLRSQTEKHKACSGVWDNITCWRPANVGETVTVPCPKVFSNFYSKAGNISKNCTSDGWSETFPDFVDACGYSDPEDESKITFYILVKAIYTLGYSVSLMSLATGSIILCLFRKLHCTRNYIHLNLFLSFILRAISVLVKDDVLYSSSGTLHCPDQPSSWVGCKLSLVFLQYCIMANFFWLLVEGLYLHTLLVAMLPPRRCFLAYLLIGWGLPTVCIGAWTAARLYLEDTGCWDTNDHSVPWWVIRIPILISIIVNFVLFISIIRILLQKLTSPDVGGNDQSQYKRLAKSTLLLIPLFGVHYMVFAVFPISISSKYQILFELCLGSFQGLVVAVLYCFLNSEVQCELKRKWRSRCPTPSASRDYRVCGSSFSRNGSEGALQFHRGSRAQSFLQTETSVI
As to the kind of experiment: Inhibition of VIP-induced β-arrestin recruitment (% Activity Arrestin). The conditions noted are these: Batch 1. The class given is cell-based. Also noted: expressed in transfected cells; host or cells: HEK293 cells transfected with VIPR2 in pCDNA3.1 (as described). The method in brief: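 HEK293 cells stably expressing β-arrestin2–β-gal EA, transiently transfected with ProLink-tagged hVIPR2, plated overnight; inhibitor added for 2 h at 37 °C, 5% CO2. Receptor–arrestin complementation read by chemiluminescence after 5 min–1 h at room temperature; inhibition of VIP-induced recruitment reported as % activity.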
(Recruitment of arrestin is a read-out of receptor activation apart from second messengers.)

The record followed here is patent publication US20150239831A1, “INHIBITORS OF CENTRAL NERVOUS SYSTEM VASOACTIVE INHIBITORY PEPTIDE RECEPTOR 2” (The Trustees Of Columbia University In The City Of New York, priority 2012, published 2015).

The inhibition is how much of the control response was suppressed. A high value points to strong suppression. `O=C(N[C@H]1c2ccccc2C[C@H]1O)[C@H](Cc1ccccc1)C[C@H](O)CNS(=O)(=O)c1ccc(C(F)(F)F)cc1` [F] showed an inhibition at 0.5 µM of 58.1%, an inhibition at 1 µM of 83% and an inhibition at 5 µM of 92.9%.
`CC(=O)c1ccc(S(=O)(=O)NC[C@@H](O)C[C@@H](Cc2ccccc2)C(=O)N[C@H]2c3ccccc3C[C@H]2O)cc1` [K] came in with an inhibition at 0.5 µM of 58.3%, an inhibition at 1 µM of 78% and an inhibition at 5 µM of 88.7%.
Taken in the same sequence, the figures for `N#Cc1ccc(S(=O)(=O)NC[C@@H](O)C[C@@H](Cc2ccccc2)C(=O)N[C@H]2c3ccccc3C[C@H]2O)cc1` [C] were 38.5%, 59.5% and 90.4%.
The like results for `Cc1ccc(S(=O)(=O)NC[C@@H](O)C[C@@H](Cc2ccccc2)C(=O)N[C@H]2c3ccccc3C[C@H]2O)cc1` [I] were, in that order, 62.8%, 80.4% and 90%.
Taken in the same sequence, the figures for `COc1ccc(S(=O)(=O)NC[C@@H](O)C[C@@H](Cc2ccccc2)C(=O)N[C@H]2c3ccccc3C[C@H]2O)cc1` [E] were 54.1%, 76.7% and 89.4%.
On to `CC(C)c1ccc(S(=O)(=O)NC[C@@H](O)C[C@@H](Cc2ccccc2)C(=O)N[C@H]2c3ccccc3C[C@H]2O)cc1` [Compound A10], for which the inhibition at 0.5 µM stood at 31.5%, 1 µM produced 63.1% inhibition and the inhibition at 5 µM is 87.7%.
